Measurements: patent US10172927B2, “Detection/measurement of malaria infection disease utilizing natural immunity by hemozoin induction, screening of preventative or therapeutic medicine for malaria infection disease, and regulation of natural immunity induction” (Osaka University, priority 2004, dated 2019)

System: FL-DCs stimulated with HZ
Experiment: Chloroquine effect on HZ-induced cytokine production by FL-DCs
Format: cell-based, mouse
Conditions: 30 μM HZ, CQ 10 μM, 24 hours; P<0.05 HZ vs. HZ+CQ
Description: Single cell suspensions of spleen cells (5×10^5 cells/well) were cultured in complete RPMI 1640 medium supplemented with 10% FCS for 48 hours. F1t3 ligand-induced bone marrow-derived DCs (FL-DCs) (1×10^5 cells/well) were generated by culturing bone marrow cells with F1t3 ligand (100 ng/ml; Pepro Tech) for eight to nine days in DMEM medium containing 10% FCS. The cells were stimulated in the presence of the indicated stimuli and supernatants were collected for cytokine ELISA.
Murine TNF-α, IL-12p40, MCP-1, IL-6 (R & D Systems), and IFNα (PBL Bio. Lab) were measured either from the supernatants or the sera by ELISA according to the manufacturer's instructions.
The anti-malarial formulation, chloroquine (CQ), has been reported to inhibit proinflammatory responses during malaria infection in addition to endosome/lysosome maturations and malarial hemozoin crystal formations, whereas the exact mechanism of anti-malarial effects of CQ is still under debate (Int. J. Parasitol. 32: 1645-1653, 2002; Life Sci. 74: 1957-1972, 2004). […] To examine the effect of CQ to HZ-induced proinflammatory responses, FL-DCs were stimulated with HZ in the presence of CQ. […]
(a) To detect DNA contamination, HZ was run on an agarose gel and stained with ethidium bromide. […] Then the supernatants were collected and measured for TNFα or IL-12p40 by ELISA. […] “n.d.” means “not detected”.

CCN(CC)CCCC(C)Nc1ccnc2cc(Cl)ccc12 (stereo not shown) [CQ, chloroquine]
HZ-induced TNFα and IL-12p40 productions by FL-DCs in the presence of CQ: diminished
